In this experiment the test system is Maize. Put plainly: Preemergence phytotoxic action of the herbicide of formula I and of mixtures of herbicide and safener of formula II on maize. In kind it is in vivo. To be noted: no safener, 22 days. The source says: Preemergence Phytoxic Action of the Herbicide of Formula I and of the Mixtures of Herbicide and Safener of Formula II on Maize
Maize is sown in standard soil in plastic pots. Immediately after sowing, the pots are sprayed with an aqueous suspension of the test substances (500 l of water/ha) prepared from one of the above formulations 1 to 8. The concentration of herbicide of formula I is 4000, 3000 and 2000 g/ha. The safener No. 1.006 is applied in a ratio to the herbicide of 1:18, 1:24 and 1:30. The test plants are afterwards cultivated in a greenhouse under optimum conditions. The phytotoxic action of the herbicide on the maize (percentage phytotoxicity) is evaluated after a test duration of 22 days.

Turning to `CCc1cccc(C)c1N(C(=O)CCl)[C@@H](C)COC` [formula I, aRS,1′S(−)N-(1′-methyl-2′-methoxyethyl)-N-chloracetyl-2-ethyl-6-methylaniline], the “% Phytotoxicity” value is, setting by setting: (herbicide of formula I 4000 g/ha, greenhouse) 65%; (series b), herbicide of formula I 2000 g/ha (so in the source)) 55%; (series c), herbicide of formula I 2000 g/ha) 25%.
